Measured values reported in ChEMBL document CHEMBL1130084, “Further definition of the D1 dopamine receptor pharmacophore: synthesis of trans-6,6a,7,8,9,13b-hexahydro-5H-benzo[d]naphth[2,1-b]azepines as rigid analogues of beta-phenyldopamine” (J Med Chem, 1997).

Assays:
[1] = target: D(1A) dopamine receptor (Rattus norvegicus) (UniProt P18901); experiment: The compound is evaluated for the affinity towards Dopamine receptor D1, using [3H]- SCH 23390 as ligand on rat striatal membranes.
[2] = target: D(2) dopamine receptor (Rattus norvegicus) (UniProt P61169); experiment: The compound is evaluated for the affinity towards Dopamine receptor D2, using [3H]-spiperone as ligand on rat striatal membranes.
D(2) dopamine receptor (Rattus norvegicus), sequence (P61169 whole entry): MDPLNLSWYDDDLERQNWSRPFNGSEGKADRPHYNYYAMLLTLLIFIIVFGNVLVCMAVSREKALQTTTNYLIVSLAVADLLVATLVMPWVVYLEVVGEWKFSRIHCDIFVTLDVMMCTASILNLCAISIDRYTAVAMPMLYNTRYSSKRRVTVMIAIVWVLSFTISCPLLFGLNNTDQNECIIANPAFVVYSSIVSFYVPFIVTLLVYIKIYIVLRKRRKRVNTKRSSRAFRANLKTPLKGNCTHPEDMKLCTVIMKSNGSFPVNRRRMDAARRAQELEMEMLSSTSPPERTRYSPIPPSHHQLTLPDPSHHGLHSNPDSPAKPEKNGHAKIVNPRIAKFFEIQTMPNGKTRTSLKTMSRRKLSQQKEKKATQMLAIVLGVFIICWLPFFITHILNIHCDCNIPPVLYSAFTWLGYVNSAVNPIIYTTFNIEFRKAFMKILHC

D(1A) dopamine receptor (Rattus norvegicus), sequence (P18901 whole entry): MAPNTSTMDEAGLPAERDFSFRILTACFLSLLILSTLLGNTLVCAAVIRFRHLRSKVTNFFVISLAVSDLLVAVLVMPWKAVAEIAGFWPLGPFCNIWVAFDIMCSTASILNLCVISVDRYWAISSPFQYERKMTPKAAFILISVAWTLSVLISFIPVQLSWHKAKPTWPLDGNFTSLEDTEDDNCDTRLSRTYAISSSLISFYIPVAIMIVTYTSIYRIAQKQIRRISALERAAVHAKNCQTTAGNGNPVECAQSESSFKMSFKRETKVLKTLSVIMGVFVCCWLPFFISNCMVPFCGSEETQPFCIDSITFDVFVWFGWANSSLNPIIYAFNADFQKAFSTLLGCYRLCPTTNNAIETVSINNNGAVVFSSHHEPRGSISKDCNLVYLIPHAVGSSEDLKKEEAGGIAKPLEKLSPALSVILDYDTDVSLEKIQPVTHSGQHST

Oc1cc2c(cc1O)[C@H]1c3ccccc3CN[C@@H]1CC2
K0.5 [1]: 2.8 nM

Oc1cc2c(cc1O)[C@H]1c3ccccc3CCN[C@@H]1CC2
K0.5 [2]: 2220 nM | K0.5 [1]: 2850 nM

CN1Cc2ccccc2[C@@H]2c3cc(O)c(Br)cc3CC[C@H]21
K0.5 [1]: 322 nM

CN1CCc2ccccc2[C@@H]2c3cc(O)ccc3CC[C@H]21
K0.5 [2]: > 10000 nM | K0.5 [1]: 3950 nM

CN1CCc2ccccc2[C@@H]2c3cc(O)c(I)cc3CC[C@H]21
K0.5 [2]: 2960 nM | K0.5 [1]: 1380 nM
